Measurements: US20250340525A1, “F[…] COMPOUND” ([…], INC., priority 2022, published 2025)

Tested on: mice
Experiment: Anesthetic activity: inhalation exposure of mice in a microcircuit, loss-of-righting-reflex (LORR)
Type: in vivo
Conditions: inhalation exposure to vaporized compound/air mixture circulated through microcircuit, dose not quantified
Procedure: A sample of the product mixture formed in Step 4 of the synthesis of Example 1, comprising both cis- and trans-isomers of TTD (the “TTD mixture”), was administered to mice via inhalation exposure in a microcircuit connected using unidirectional airflow valves to a CO2 absorbent chamber and a glass syringe. A small amount of liquid TTD mixture was transferred into the glass syringe where it volatilized. Mice were transferred to the small cylindrical chamber, and the glass syringe was connected to the microcircuit in series. […] Delivery of TTD mixture was discontinued, and the mice were allowed to recover.
Separately, the trans-isomer of TTD isolated in step 5 of Example 1 above was administered to mice via inhalation exposure in a microcircuit connected using unidirectional airflow valves to a CO2 absorbent chamber and a glass syringe. A small amount of the TTD was transferred into the glass syringe where it volatilized. Mice were transferred to the small cylindrical chamber, and the glass syringe was connected to the microcircuit in series. […] Delivery of the TTD was discontinued, and the mice were allowed to recover.

Row | Compound | loss-of-righting-reflex (LORR) / anesthetic activity
1 | F[C@@H]1OC(F)(C(F)(F)F)O[C@H]1F (relative stereo) [trans-isomer of TTD, trans-2,4,5-trifluoro-2-trifluoromethyl-1,3-dioxolane] | indicated a loss-of-righting-reflex (LORR)
2 | FC1OC(F)(C(F)(F)F)OC1F (centres unmarked) [TTD mixture, 2,4,5-trifluoro-2-(trifluoromethyl)-1,3-dioxolane] | indicated a loss-of-righting-reflex (LORR)
